Measured values taken from patent publication US4777182A, “6-Amidino-2-naphthyl 4-guanidinobenzoate derivatives and pharmaceutical composition containing them” (Torii & Co., Ltd., priority 1984, dated 1988).
pIC50: −log10 of the molar value.

Target: T1, Trypsin (Bos taurus, UniProt P00760)
T1 sequence (P00760 24-246): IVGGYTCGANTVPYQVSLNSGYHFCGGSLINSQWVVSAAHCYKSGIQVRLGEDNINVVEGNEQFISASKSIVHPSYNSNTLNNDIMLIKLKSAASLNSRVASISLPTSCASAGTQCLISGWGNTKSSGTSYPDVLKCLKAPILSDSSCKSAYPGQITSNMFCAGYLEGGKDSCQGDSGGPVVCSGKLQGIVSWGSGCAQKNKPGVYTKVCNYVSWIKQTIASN
Test: Anti-trypsin activity (inhibition of TAME hydrolysis)
Format: biochemical
Conditions: read-out: ID50, Trypsin

SMILES	pIC50
CN(C)C(=N)Nc1ccc(C(=O)Oc2ccc3cc(C(=N)N)ccc3c2)cc1 [compound 9]	5.22
CCNC(=N)Nc1ccc(C(=O)Oc2ccc3cc(C(=N)N)ccc3c2)cc1 [compound 10]	5.70
CCCCNC(=N)Nc1ccc(C(=O)Oc2ccc3cc(C(=N)N)ccc3c2)cc1 [compound 13]	5.70
N=C(NCCO)Nc1ccc(C(=O)Oc2ccc3cc(C(=N)N)ccc3c2)cc1 [compound 15]	5.70
CC(=O)NCCNC(=N)Nc1ccc(C(=O)Oc2ccc3cc(C(=N)N)ccc3c2)cc1 [compound 16]	5.40

Target: Plasmin (Homo sapiens, UniProt P00747)
Test: Anti-plasmin activity (inhibition of TAME hydrolysis)
Format: biochemical
Conditions: TAME hydrolysis; read-out: ID50, Plasmin

Plasmin, sequence (P00747 97-580 limits assumed, species assumed): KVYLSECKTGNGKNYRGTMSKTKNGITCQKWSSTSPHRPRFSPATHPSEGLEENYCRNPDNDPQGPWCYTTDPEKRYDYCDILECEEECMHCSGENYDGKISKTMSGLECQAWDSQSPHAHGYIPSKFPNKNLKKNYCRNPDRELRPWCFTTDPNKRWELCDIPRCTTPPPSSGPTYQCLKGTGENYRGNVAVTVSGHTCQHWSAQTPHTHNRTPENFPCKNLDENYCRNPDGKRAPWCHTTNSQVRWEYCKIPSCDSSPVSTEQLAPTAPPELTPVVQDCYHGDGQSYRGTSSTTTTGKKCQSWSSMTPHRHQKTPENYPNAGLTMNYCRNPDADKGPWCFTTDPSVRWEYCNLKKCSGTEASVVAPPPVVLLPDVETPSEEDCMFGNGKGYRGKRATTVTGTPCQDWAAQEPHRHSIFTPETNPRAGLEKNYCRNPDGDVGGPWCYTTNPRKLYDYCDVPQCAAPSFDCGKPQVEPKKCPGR
Plasmin, sequence (P00747 581-810 limits assumed, species assumed): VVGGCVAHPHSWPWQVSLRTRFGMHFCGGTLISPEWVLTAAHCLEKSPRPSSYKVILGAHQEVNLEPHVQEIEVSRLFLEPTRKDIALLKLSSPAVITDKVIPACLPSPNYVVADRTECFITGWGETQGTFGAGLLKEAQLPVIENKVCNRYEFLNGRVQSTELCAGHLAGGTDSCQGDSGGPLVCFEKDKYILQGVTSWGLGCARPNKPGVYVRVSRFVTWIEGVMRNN

SMILES	pIC50
CN(C)C(=N)Nc1ccc(C(=O)Oc2ccc3cc(C(=N)N)ccc3c2)cc1 [compound 9]	5.70
CCNC(=N)Nc1ccc(C(=O)Oc2ccc3cc(C(=N)N)ccc3c2)cc1 [compound 10]	5.30
CCCCNC(=N)Nc1ccc(C(=O)Oc2ccc3cc(C(=N)N)ccc3c2)cc1 [compound 13]	6.30
N=C(NCCO)Nc1ccc(C(=O)Oc2ccc3cc(C(=N)N)ccc3c2)cc1 [compound 15]	5.70
CC(=O)NCCNC(=N)Nc1ccc(C(=O)Oc2ccc3cc(C(=N)N)ccc3c2)cc1 [compound 16]	6.05

Test system: Kallikrein
Test: Anti-kallikrein activity (inhibition of TAME hydrolysis)
Format: biochemical
Conditions: read-out: ID50, Kallikrein

SMILES	pIC50
CN(C)C(=N)Nc1ccc(C(=O)Oc2ccc3cc(C(=N)N)ccc3c2)cc1 [compound 9]	6.05
CCNC(=N)Nc1ccc(C(=O)Oc2ccc3cc(C(=N)N)ccc3c2)cc1 [compound 10]	6.40
CCCCNC(=N)Nc1ccc(C(=O)Oc2ccc3cc(C(=N)N)ccc3c2)cc1 [compound 13]	6.05
N=C(NCCO)Nc1ccc(C(=O)Oc2ccc3cc(C(=N)N)ccc3c2)cc1 [compound 15]	6.00
CC(=O)NCCNC(=N)Nc1ccc(C(=O)Oc2ccc3cc(C(=N)N)ccc3c2)cc1 [compound 16]	5.52

Target: Thrombin (Homo sapiens, UniProt P00734)
Test: biochemical
Conditions: TAME hydrolysis; read-out: ID50, Thrombin

SMILES	pIC50
CN(C)C(=N)Nc1ccc(C(=O)Oc2ccc3cc(C(=N)N)ccc3c2)cc1 [compound 9]	6.22
CCNC(=N)Nc1ccc(C(=O)Oc2ccc3cc(C(=N)N)ccc3c2)cc1 [compound 10]	5.22
CCCCNC(=N)Nc1ccc(C(=O)Oc2ccc3cc(C(=N)N)ccc3c2)cc1 [compound 13]	6.00
N=C(NCCO)Nc1ccc(C(=O)Oc2ccc3cc(C(=N)N)ccc3c2)cc1 [compound 15]	6.00

Same assay, conditions: at 1×10^-5 M; read-out: percentage inhibition, Thrombin (figure in parentheses)

SMILES	inhibition at 10 µM
CC(=O)NCCNC(=N)Nc1ccc(C(=O)Oc2ccc3cc(C(=N)N)ccc3c2)cc1 [compound 16]	49%

Target: T2, C1r (Homo sapiens, UniProt P00736)
T2 sequence (P00736 18-463 limits assumed): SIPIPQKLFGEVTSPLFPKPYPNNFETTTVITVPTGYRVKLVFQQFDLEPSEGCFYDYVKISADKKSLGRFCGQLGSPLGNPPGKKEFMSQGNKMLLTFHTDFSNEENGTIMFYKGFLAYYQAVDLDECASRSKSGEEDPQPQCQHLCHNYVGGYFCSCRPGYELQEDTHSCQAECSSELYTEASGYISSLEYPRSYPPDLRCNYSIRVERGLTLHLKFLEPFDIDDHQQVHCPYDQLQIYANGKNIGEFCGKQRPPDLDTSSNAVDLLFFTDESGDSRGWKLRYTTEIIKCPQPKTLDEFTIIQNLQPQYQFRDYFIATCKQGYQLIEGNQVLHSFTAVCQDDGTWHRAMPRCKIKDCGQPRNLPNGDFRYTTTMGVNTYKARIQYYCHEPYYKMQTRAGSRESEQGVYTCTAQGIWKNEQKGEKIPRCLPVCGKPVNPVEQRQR
T2 sequence (P00736 464-705 limits assumed): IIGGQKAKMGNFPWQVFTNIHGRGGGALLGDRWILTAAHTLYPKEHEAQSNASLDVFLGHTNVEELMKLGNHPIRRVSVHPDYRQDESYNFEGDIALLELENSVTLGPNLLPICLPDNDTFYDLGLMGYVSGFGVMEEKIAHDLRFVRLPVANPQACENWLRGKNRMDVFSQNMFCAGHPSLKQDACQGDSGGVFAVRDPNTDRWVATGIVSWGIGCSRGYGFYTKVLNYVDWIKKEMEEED
Test: Anti-C1r activity (inhibition of AAME hydrolysis)
Format: biochemical
Conditions: AAME hydrolysis; read-out: ID50, C1r
Experimental: The anti-C1 esterase (C1r, C1s) activity was determined according to the method of Okamura et al. [K. Okamura, M. Muramatsu and B. Fujii, Biochem. Biophys. Acta, 295, 252-257 (1973)]. (2) The inhibition of complement mediated hemolysis was determined according to the method of Baker et al. [B. R. Baker and E. H. Erickson, J. Med. Chem., 12, 408-414 (1969)]. The figures in Table 2 have the following meanings: C1r: […]

SMILES	pIC50
N=C(NCCO)Nc1ccc(C(=O)Oc2ccc3cc(C(=N)N)ccc3c2)cc1 [compound 15]	5.30

Same assay, conditions: at 1×10^-5 M; read-out: percent inhibition, C1r (figure in parentheses)

SMILES	inhibition at 10 µM
CN(C)C(=N)Nc1ccc(C(=O)Oc2ccc3cc(C(=N)N)ccc3c2)cc1 [compound 9]	41%
CCNC(=N)Nc1ccc(C(=O)Oc2ccc3cc(C(=N)N)ccc3c2)cc1 [compound 10]	48%
CCNC(=NC)Nc1ccc(C(=O)Oc2ccc3cc(C(=N)N)ccc3c2)cc1 [compound 11]	24%
CCN=C(NCC)Nc1ccc(C(=O)Oc2ccc3cc(C(=N)N)ccc3c2)cc1 [compound 12]	24%
CCCCNC(=N)Nc1ccc(C(=O)Oc2ccc3cc(C(=N)N)ccc3c2)cc1 [compound 13]	46%
CC(=O)NCCNC(=N)Nc1ccc(C(=O)Oc2ccc3cc(C(=N)N)ccc3c2)cc1 [compound 16]	35%

Target: T3, C1s (Homo sapiens, UniProt P09871)
T3 sequence (P09871 16-437 limits assumed): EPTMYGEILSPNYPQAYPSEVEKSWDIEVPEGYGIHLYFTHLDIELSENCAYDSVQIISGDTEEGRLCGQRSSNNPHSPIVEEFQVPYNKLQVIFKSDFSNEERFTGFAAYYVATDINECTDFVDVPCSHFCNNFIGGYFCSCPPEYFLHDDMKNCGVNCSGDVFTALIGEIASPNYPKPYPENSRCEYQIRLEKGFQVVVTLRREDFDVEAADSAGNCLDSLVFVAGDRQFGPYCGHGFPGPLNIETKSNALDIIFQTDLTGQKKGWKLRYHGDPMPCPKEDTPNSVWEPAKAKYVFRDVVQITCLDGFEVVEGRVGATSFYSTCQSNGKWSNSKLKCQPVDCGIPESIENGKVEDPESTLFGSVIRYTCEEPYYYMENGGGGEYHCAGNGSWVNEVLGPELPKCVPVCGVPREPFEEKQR
T3 sequence (P09871 438-688 limits assumed): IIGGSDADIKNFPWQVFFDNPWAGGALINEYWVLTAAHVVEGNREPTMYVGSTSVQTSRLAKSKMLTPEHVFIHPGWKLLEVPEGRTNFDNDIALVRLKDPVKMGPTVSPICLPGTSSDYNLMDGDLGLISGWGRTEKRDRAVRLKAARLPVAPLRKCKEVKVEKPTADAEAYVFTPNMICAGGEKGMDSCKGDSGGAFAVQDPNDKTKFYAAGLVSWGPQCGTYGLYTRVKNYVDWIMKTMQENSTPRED
Test: Anti-C1s activity (inhibition of ATEE hydrolysis)
Format: biochemical
Conditions: read-out: ID50, C1s
Experimental: The anti-C1 esterase (C1r, C1s) activity was determined according to the method of Okamura et al. [K. Okamura, M. Muramatsu and B. Fujii, Biochem. Biophys. Acta, 295, 252-257 (1973)]. (2) The inhibition of complement mediated hemolysis was determined according to the method of Baker et al. [B. R. Baker and E. H. Erickson, J. Med. Chem., 12, 408-414 (1969)]. The figures in Table 2 have the following meanings:
C1s: Molar concentration of the test compound which inhibits 50% of the ability of C1s to hydrolyse ATEE (acetyltyrosin ethyl ester) (ID50).

SMILES	pIC50
CN(C)C(=N)Nc1ccc(C(=O)Oc2ccc3cc(C(=N)N)ccc3c2)cc1 [compound 9]	6.40
CCNC(=N)Nc1ccc(C(=O)Oc2ccc3cc(C(=N)N)ccc3c2)cc1 [compound 10]	6.10
CCNC(=NC)Nc1ccc(C(=O)Oc2ccc3cc(C(=N)N)ccc3c2)cc1 [compound 11]	6.70
CCN=C(NCC)Nc1ccc(C(=O)Oc2ccc3cc(C(=N)N)ccc3c2)cc1 [compound 12]	7.10
CCCCNC(=N)Nc1ccc(C(=O)Oc2ccc3cc(C(=N)N)ccc3c2)cc1 [compound 13]	6.30
N=C(NCCO)Nc1ccc(C(=O)Oc2ccc3cc(C(=N)N)ccc3c2)cc1 [compound 15]	6.05
CC(=O)NCCNC(=N)Nc1ccc(C(=O)Oc2ccc3cc(C(=N)N)ccc3c2)cc1 [compound 16]	5.52

Test system: complement mediated hemolysis
Test: Inhibition of complement mediated hemolysis
Format: cell-based
Conditions: 1 × 10^-5
Source text: Therefore, when a known amount of complement admixed with a C1 esterase inhibitor is used, the hemolysis must be suppressed in proportion to the inhibitory activity.

SMILES	Inhibition of complement mediated hemolysis (%)
CN(C)C(=N)Nc1ccc(C(=O)Oc2ccc3cc(C(=N)N)ccc3c2)cc1 [compound 9]	100%
CCNC(=N)Nc1ccc(C(=O)Oc2ccc3cc(C(=N)N)ccc3c2)cc1 [compound 10]	100%
CCNC(=NC)Nc1ccc(C(=O)Oc2ccc3cc(C(=N)N)ccc3c2)cc1 [compound 11]	100%
CCN=C(NCC)Nc1ccc(C(=O)Oc2ccc3cc(C(=N)N)ccc3c2)cc1 [compound 12]	100%
CCCCNC(=N)Nc1ccc(C(=O)Oc2ccc3cc(C(=N)N)ccc3c2)cc1 [compound 13]	100%
N=C(NCCO)Nc1ccc(C(=O)Oc2ccc3cc(C(=N)N)ccc3c2)cc1 [compound 15]	96%
CC(=O)NCCNC(=N)Nc1ccc(C(=O)Oc2ccc3cc(C(=N)N)ccc3c2)cc1 [compound 16]	100%

Same assay, conditions: 1 × 10^-6

SMILES	Inhibition of complement mediated hemolysis (%)
CN(C)C(=N)Nc1ccc(C(=O)Oc2ccc3cc(C(=N)N)ccc3c2)cc1 [compound 9]	68%
CCNC(=N)Nc1ccc(C(=O)Oc2ccc3cc(C(=N)N)ccc3c2)cc1 [compound 10]	86%
CCNC(=NC)Nc1ccc(C(=O)Oc2ccc3cc(C(=N)N)ccc3c2)cc1 [compound 11]	57%
CCN=C(NCC)Nc1ccc(C(=O)Oc2ccc3cc(C(=N)N)ccc3c2)cc1 [compound 12]	59%
CCCCNC(=N)Nc1ccc(C(=O)Oc2ccc3cc(C(=N)N)ccc3c2)cc1 [compound 13]	78%
N=C(NCCO)Nc1ccc(C(=O)Oc2ccc3cc(C(=N)N)ccc3c2)cc1 [compound 15]	52%
CC(=O)NCCNC(=N)Nc1ccc(C(=O)Oc2ccc3cc(C(=N)N)ccc3c2)cc1 [compound 16]	89%

Same assay, conditions: 1 × 10^-7

SMILES	Inhibition of complement mediated hemolysis (%)
CN(C)C(=N)Nc1ccc(C(=O)Oc2ccc3cc(C(=N)N)ccc3c2)cc1 [compound 9]	8%
CCNC(=N)Nc1ccc(C(=O)Oc2ccc3cc(C(=N)N)ccc3c2)cc1 [compound 10]	20%
CCNC(=NC)Nc1ccc(C(=O)Oc2ccc3cc(C(=N)N)ccc3c2)cc1 [compound 11]	0%
CCN=C(NCC)Nc1ccc(C(=O)Oc2ccc3cc(C(=N)N)ccc3c2)cc1 [compound 12]	0%
CCCCNC(=N)Nc1ccc(C(=O)Oc2ccc3cc(C(=N)N)ccc3c2)cc1 [compound 13]	3%
N=C(NCCO)Nc1ccc(C(=O)Oc2ccc3cc(C(=N)N)ccc3c2)cc1 [compound 15]	6%
CC(=O)NCCNC(=N)Nc1ccc(C(=O)Oc2ccc3cc(C(=N)N)ccc3c2)cc1 [compound 16]	25%
